One block for each compound: values may come before it.
How the values were obtained:
[1] = tested on: stomach mRNA; assay: Stomach transcriptome (RNAseq) after oral ENT-01 in old mice; type: in vivo; conditions: old mice after treatment
Procedure: (§1) Male C57Bl/6 mice, aged 20 and 78 weeks, were obtained from Jackson labs. Animals were exposed to 12 hr light dark cycles and provided Teklad standard mouse diet and water ad lib.
(§2) Animals were dosed once daily by oral gavage in the morning for a total of 14 days. Animals were fasted 3-4 hours prior to dosing and at least 1 hour following dosing, with fasting not to exceed 6 hours. The test article was dissolved in 0.5% hydroxypropylcellulose in water. On day 15 the animals were euthanized by CO2 asphyxiation, necropsied, and tissues prepared for histology and RNAseq analysis.
The GI tracts of the animals were sectioned into stomach, duodenum, jejunum, ileum, caecum, colon, and rectum. The tissues were then sent for histology, and the transcriptomes analyzed by RNAseq.

[2] = tested on: stomach tissues gene expression; assay: Stomach RNA-sequencing, effect size evaluation of treatment contrasts; type: in vivo, mice
Procedure: as §1, §2
Samples of stomach tissues from the mice were analysed by RNA-sequencing on an Illumina platform.
A four-fold change in expression between groups was used as a measure of pseudo-significance in the absence of replicate samples. At this threshold, differentially expressed genes were identified in all contrasts. […]

[3] = molecular target: T1, PTPN11/SHP2-FL (E76K) (Homo sapiens, UniProt Q06124, E76K); assay: Phosphatase assay PTPN11/SHP2-FL (E76K)
T1 sequence (Q06124 2-597 isoform Q06124-1 E76K): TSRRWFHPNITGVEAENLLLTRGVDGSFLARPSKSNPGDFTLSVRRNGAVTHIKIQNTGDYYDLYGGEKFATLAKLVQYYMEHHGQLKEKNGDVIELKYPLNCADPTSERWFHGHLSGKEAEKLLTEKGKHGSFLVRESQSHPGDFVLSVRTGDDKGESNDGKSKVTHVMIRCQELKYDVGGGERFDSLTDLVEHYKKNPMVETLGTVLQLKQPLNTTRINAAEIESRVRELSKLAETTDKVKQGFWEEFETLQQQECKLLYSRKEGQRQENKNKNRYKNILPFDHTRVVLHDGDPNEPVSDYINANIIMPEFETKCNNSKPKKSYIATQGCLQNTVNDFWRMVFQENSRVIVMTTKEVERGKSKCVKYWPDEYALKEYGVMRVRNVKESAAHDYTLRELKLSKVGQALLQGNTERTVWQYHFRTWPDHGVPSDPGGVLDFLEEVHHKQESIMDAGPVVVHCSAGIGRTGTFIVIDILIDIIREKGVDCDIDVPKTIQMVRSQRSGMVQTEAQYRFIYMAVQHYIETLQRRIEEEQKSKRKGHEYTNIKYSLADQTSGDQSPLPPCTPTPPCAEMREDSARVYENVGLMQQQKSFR

[4] = molecular target: T2, PTPN6/SHP1 (Homo sapiens, UniProt P29350); assay: Phosphatase assay PTPN6/SHP1; type: biochemical
T2 construct: purchased Recation Biology Inc

[5] = molecular target: T3, PP2A Alpha/PP2R1A Complex (Homo sapiens, UniProt P67775); assay: Phosphatase assay PP2A Alpha/PP2R1A Complex; type: biochemical
T3 construct: purchased Recation Biology Inc

[6] = molecular target: T4, PP1B (Homo sapiens, UniProt P62140); assay: Phosphatase assay PP1B (DiFMUP fluorescence); type: biochemical
T4 construct: purchased Recation Biology Inc

[7] = molecular target: T5, PTPN2/TC-PTP (Homo sapiens, UniProt P17706); assay: Phosphatase assay PTPN2/TC-PTP; type: biochemical
T5 construct: purchased Recation Biology Inc
T5 sequence (P17706 1-415): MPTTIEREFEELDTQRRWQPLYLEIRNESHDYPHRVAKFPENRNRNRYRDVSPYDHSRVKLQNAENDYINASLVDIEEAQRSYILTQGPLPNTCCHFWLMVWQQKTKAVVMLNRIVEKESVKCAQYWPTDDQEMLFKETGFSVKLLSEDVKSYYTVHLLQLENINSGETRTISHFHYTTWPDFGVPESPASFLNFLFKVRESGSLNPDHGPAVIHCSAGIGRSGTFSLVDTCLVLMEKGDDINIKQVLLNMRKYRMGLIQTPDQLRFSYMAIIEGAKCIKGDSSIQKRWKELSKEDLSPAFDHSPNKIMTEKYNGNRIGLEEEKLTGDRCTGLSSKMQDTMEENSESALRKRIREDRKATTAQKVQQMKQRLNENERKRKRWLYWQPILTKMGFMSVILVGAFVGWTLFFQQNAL

[8] = molecular target: T6, PP1A (Homo sapiens, UniProt P62136); assay: Phosphatase assay PP1A (DiFMUP fluorescence); type: biochemical
T6 construct: purchased Recation Biology Inc

[9] = tested on: LXR; conditions: Ogundare et al., 2010; cited from earlier work
[10] = tested on: RXR/NURR1; conditions: Ogundare et al., 2010; cited from earlier work
[11] = molecular target: FXR (Homo sapiens, UniProt Q96RI1); conditions: Ogundare et al., 2010; cited from earlier work
[12] = Body weight of mice after i.p. deuterated ENT-03; type: in vivo
Text: The presence of the deuterium on the side chain likely slows the action of the 2-methylacyl-coenzyme A racemase on C-25, the subsequent action of the dehydrogenase that produces the 24,25-trans-unsaturated derivative by removing the deuterium atoms at C24 and C25, and the subsequent hydration and oxidation at the C24 bond catalyzed by the D-bifunctional protein. Instead, the metabolism of ENT-03D3 will begin with the oxidation at C24 by CYP46A1, yielding the following compound: […]

[13] = molecular target: PTPN11/SHP2 (Homo sapiens, UniProt Q06124); assay: Phosphatase assay PTPN11/SHP2; type: biochemical; conditions: Table 2C; read-out: Compound IC50 (M) PTPN11/SHP2

T3 sequence (P67775 whole entry): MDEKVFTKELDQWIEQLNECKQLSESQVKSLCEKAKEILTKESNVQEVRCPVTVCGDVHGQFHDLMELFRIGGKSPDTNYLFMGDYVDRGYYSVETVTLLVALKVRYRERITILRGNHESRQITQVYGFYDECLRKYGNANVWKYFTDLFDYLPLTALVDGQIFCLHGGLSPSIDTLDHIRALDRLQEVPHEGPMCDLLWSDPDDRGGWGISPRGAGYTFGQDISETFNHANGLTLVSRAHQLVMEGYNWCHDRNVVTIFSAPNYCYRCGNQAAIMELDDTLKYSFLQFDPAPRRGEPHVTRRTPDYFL
T3 sequence (P30153 whole entry partner): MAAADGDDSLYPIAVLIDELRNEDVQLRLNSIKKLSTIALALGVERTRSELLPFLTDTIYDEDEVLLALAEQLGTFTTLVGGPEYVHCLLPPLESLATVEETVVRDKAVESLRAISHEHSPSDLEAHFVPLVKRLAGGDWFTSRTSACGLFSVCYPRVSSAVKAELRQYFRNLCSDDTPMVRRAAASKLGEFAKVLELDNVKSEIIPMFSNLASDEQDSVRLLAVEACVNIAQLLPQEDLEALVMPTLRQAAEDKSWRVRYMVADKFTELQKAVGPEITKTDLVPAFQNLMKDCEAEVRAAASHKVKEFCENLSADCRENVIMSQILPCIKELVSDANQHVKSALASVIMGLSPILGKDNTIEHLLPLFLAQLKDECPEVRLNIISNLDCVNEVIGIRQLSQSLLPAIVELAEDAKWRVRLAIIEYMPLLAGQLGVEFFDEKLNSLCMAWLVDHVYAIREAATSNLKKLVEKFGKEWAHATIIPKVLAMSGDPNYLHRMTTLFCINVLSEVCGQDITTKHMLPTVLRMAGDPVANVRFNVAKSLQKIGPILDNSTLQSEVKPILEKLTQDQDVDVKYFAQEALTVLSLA
T4 sequence (P62140 whole entry): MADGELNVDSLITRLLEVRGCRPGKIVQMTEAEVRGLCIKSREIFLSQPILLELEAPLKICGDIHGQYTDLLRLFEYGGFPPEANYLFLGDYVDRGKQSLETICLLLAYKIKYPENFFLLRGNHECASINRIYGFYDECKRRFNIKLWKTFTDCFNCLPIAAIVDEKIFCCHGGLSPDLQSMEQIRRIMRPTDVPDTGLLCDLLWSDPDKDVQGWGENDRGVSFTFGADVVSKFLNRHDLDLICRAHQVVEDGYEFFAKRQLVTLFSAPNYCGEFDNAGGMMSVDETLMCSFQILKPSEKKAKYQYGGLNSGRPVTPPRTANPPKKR
T6 sequence (P62136 whole entry): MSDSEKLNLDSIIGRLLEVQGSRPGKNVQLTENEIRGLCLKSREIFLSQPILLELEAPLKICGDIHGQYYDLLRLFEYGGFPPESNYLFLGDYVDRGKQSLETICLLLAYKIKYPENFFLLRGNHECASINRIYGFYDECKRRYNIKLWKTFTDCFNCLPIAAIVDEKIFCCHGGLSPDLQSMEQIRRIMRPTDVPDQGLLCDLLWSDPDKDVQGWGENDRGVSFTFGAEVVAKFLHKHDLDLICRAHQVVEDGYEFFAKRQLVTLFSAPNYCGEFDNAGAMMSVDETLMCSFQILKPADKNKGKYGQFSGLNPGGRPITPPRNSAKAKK
Chain of FXR (Q96RI1 whole entry, species assumed): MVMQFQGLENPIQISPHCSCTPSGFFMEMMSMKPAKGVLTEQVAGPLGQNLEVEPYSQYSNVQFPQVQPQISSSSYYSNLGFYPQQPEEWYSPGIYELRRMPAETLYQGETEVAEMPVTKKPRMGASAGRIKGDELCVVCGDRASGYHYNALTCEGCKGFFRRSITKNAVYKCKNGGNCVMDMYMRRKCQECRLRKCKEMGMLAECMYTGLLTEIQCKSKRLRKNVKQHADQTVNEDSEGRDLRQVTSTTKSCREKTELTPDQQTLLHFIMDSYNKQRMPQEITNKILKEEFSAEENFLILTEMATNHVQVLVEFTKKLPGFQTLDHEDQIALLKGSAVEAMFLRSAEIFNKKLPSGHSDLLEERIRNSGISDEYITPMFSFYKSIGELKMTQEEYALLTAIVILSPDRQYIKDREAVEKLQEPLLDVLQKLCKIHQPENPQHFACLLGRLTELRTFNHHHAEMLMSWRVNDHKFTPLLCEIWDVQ
T2 sequence (P29350 whole entry): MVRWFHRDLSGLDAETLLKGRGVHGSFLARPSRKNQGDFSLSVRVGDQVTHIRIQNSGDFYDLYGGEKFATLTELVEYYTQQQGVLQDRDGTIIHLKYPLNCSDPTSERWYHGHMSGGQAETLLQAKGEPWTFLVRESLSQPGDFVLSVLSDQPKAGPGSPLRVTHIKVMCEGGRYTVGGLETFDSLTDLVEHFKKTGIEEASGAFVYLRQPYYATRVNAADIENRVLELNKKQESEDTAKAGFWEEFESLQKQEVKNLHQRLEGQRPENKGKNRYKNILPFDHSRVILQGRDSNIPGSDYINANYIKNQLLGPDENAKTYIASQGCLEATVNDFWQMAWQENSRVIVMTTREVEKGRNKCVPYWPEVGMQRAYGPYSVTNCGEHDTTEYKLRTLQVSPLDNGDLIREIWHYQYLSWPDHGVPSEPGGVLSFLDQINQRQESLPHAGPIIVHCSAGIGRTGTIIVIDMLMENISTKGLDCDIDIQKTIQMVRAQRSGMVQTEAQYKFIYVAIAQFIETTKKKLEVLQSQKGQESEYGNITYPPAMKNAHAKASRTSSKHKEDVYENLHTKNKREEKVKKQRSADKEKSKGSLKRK

Compound: CC(C)[C@@H](CC[C@@H](C)[C@H]1CC[C@H]2[C@@H]3[C@H](O)C[C@H]4C[C@@H](NCCCNCCCCN)CC[C@]4(C)[C@H]3CC[C@]12C)OS(=O)(=O)O (single isomer, unassigned) [ENT-01, squalamine phosphate]
mRNA levels for all of the genes in Table 5A, in words [1]: significant increase | number of significant features, Down-regulated, fold change threshold 1.3× ([2]; Old vs young, both treated): 1606 | number of significant features, Down-regulated, fold change threshold 2× ([2]; Old vs young, both treated): 267 | number of significant features, Down-regulated, fold change threshold 4× ([2]; Old vs young, both treated): 69 | number of significant features, Down-regulated, fold change threshold 8× ([2]; Old vs young, both treated): 36 | number of significant features, Down-regulated, fold change threshold 16× ([2]; Old vs young, both treated): 27 | number of significant features, Down-regulated, fold change threshold Any ([2]; Old vs young, both treated): 7534 | number of significant features, Up-regulated, fold change threshold 1.3× ([2]; Old vs young, both treated): 1647 | number of significant features, Up-regulated, fold change threshold 2× ([2]; Old vs young, both treated): 559 | number of significant features, Up-regulated, fold change threshold 4× ([2]; Old vs young, both treated): 263 | number of significant features, Up-regulated, fold change threshold 8× ([2]; Old vs young, both treated): 178 | number of significant features, Up-regulated, fold change threshold 16× ([2]; Old vs young, both treated): 135 | number of significant features, Up-regulated, fold change threshold Any ([2]; Old vs young, both treated): 7479 | number of significant features, Down-regulated, fold change threshold 1.3× ([2]; treatment vs control (old)): 2235 | number of significant features, Down-regulated, fold change threshold 2× ([2]; treatment vs control (old)): 431 | number of significant features, Down-regulated, fold change threshold 4× ([2]; treatment vs control (old)): 66 | number of significant features, Down-regulated, fold change threshold 8× ([2]; treatment vs control (old)): 25 | number of significant features, Down-regulated, fold change threshold 16× ([2]; treatment vs control (old)): 11 | number of significant features, Down-regulated, fold change threshold Any ([2]; treatment vs control (old)): 7460 | number of significant features, Up-regulated, fold change threshold 1.3× ([2]; treatment vs control (old)): 2430 | number of significant features, Up-regulated, fold change threshold 2× ([2]; treatment vs control (old)): 766 | number of significant features, Up-regulated, fold change threshold 4× ([2]; treatment vs control (old)): 317 | number of significant features, Up-regulated, fold change threshold 8× ([2]; treatment vs control (old)): 168 | number of significant features, Up-regulated, fold change threshold 16× ([2]; treatment vs control (old)): 116 | number of significant features, Up-regulated, fold change threshold Any ([2]; treatment vs control (old)): 7553 | number of significant features, Down-regulated, fold change threshold 1.3× ([2]; treatment vs control (young)): 2367 | number of significant features, Down-regulated, fold change threshold 2× ([2]; treatment vs control (young)): 642 | number of significant features, Down-regulated, fold change threshold 4× ([2]; treatment vs control (young)): 144 | number of significant features, Down-regulated, fold change threshold 8× ([2]; treatment vs control (young)): 47 | number of significant features, Down-regulated, fold change threshold 16× ([2]; treatment vs control (young)): 12 | number of significant features, Down-regulated, fold change threshold Any ([2]; treatment vs control (young)): 7553 | number of significant features, Up-regulated, fold change threshold 1.3× ([2]; treatment vs control (young)): 1430 | number of significant features, Up-regulated, fold change threshold 2× ([2]; treatment vs control (young)): 232 | number of significant features, Up-regulated, fold change threshold 4× ([2]; treatment vs control (young)): 58 | number of significant features, Up-regulated, fold change threshold 8× ([2]; treatment vs control (young)): 38 | number of significant features, Up-regulated, fold change threshold 16× ([2]; treatment vs control (young)): 28 | number of significant features, Up-regulated, fold change threshold Any ([2]; treatment vs control (young)): 7460

IC50 [3]: 43 nM
Compound: CC(CCCC(C)C1CCC2C3C(O)CC4CC(NCCCNCCCCN)CCC4(C)C3CC(O)C12C)C(=O)O (single isomer, unassigned) [ENT-05]

Compound: CC(CCCC(C)C1CCC2C3C(O)CC4CC(NCCCNCCCCN)CCC4(C)C3CCC12C)C(=O)O (single isomer, unassigned) [ENT-06]
activity at PTPN6/SHP1, in words [4]: inactive | activity at PP2A alpha, in words [5]: inactive | activity at PP1B, in words [6]: inactive | IC50 [3]: 345 nM | activity at PTPN2, in words [7]: inactive | activity at PP1A, in words [8]: inactive

Compound: C[C@H](CCC[C@@H](C)[C@H]1CCC2C3C(CC[C@@]21C)[C@@]1(C)CCC(=O)C=C1C[C@H]3O)C(=O)O (stereo partly drawn) [7-HOCA, 7-alpha hydroxy-3-oxo-4-cholestenoic acid]
activation of LXR receptor [9]: did not activate | activation of RXR/NURR1 receptors [10]: did not activate | activation of FXR receptor [11]: did not activate

Compound: [2H]C([2H])(CCC(C)C1CCC2C3C(O)CC4CC(NCCCNCCCCNCCCN)CCC4(C)C3CCC12C)C([2H])(C)C(=O)O (stereo not drawn) [ENT-03D3]
effect on body weight, in words [12]: gained weight

Compound: CCc1oc2cc(S(=O)(=O)Nc3ccc(S(=O)(=O)Nc4nccs4)cc3)ccc2c1C(=O)c1cc(Br)c(O)c(Br)c1 [PTP1B Inhibitor, 3-(3,5-Dibromo-4-hydroxy-benzoyl)-2-ethyl-benzofuran-6-sulfonicacid-(4-(thiazol-2-ylsulfamyl)-phenyl)-amide]
IC50 [13]: 1.82e-06 M

From US12503485B2, “Human aminosterol ENT-03 compounds, related compositions comprising the same, and methods of using the same” (Enterin, Inc., priority 2019, dated 2025)
